# According to US3934024A, “Method of producing analgesia and compositions useful therein” (Sharps Associates, priority 1975, dated 1976):
# What was measured:
# mice = assay: Acetic acid writhing test in mice (oral); format: in vivo; settings: for Percent inhibition: acetic acid writhing, writhes counted for 20 minutes beginning 5 minutes after acid injection
# Procedure: The analgesic activity of the compound was evaluated in an acetic acid writhing test. The acetic acid writhing test used was modified from that described by Whittle, Brit J. Pharmacol., 22, 296 (1964). The number of writhes were counted for a 20 minute period beginning 5 minutes after the injection of the acid. Analgetic potency was calculated from the difference between the test groups and their controls.
# Acetic acid writhing test in mice (oral)
# rat = rat tail flick test for analgesic activity; format: in vivo; settings: oral, 95% C.L. = 0.9 - 4.8
# Excerpt: In the rat tail flick test for analgesic activity [D'Amour and Smith, J. Pharmacol. Exper. Therap.
smiles,measurement,setting,value
"CCCCCC(C)C(C)c1cc(O)c2c(c1)OC(C)(C)C1=C2CCCS1 (stereo not drawn) [Compound I, 1,2-dihydro-5,5-dimethyl-10-hydroxy-8-(3-methyl-2-octyl)-3H,5H-thiopyrano[2,3-c][1]benzopyran]",ED50,"mice; Mus musculus, oral, 95% C.L. = 9.2 - 12.4",10.8 mg/kg
same,Percent inhibition,mice; 5 mg/kg p.o.,20.7%
same,Percent inhibition,mice; 10 mg/kg p.o.,48.9%
same,Percent inhibition,mice; 20 mg/kg p.o.,74.0%
same,Percent inhibition,mice; 40 mg/kg p.o.,95.6%
same,ED50,rat,2.7 mg/kg
